Test results: patent publication US11541050B2, “Pyrimidine derivatives for the treatment of viral infections” (JANSSEN SCIENCES IRELAND UC, priority 2011, dated 2023)

Key:
Design in all cases: unit not given here
[1] = tested on: interferon-stimulated responsive elements (ISRE) in HEK-ISREluc cells; experiment: Activation of ISRE promoter elements by conditioned media from compound-treated PBMC; type: cell-based, human; conditions: conditioned media from compound-treated PBMC on HEK-ISREluc cells
Experimental: The potential of compounds to induce IFN-I was also evaluated by measuring the activation of interferon-stimulated responsive elements (ISRE) by conditioned media from PBMC. […] The plasmid pISRE-Luc from Clontech (ref. 631913) contains 5 copies of this ISRE element, followed by the firefly luciferase ORF. A HEK293 cell line stably transfected with pISRE-Luc (HEK-ISREluc) was established to profile of the conditioned PBMC cell culture media.
Briefly, PBMCs were prepared from buffy coats of at least two donors using a standard Ficoll centrifugation protocol. Isolated PBMCs were resuspended in RPMI medium supplemented with 10% human AB serum and 2×10^5 cells/well were dispensed into 384-well plates containing compounds (70 μL total volume). After overnight incubation, 10 μL of supernatant was transferred to 384-well plates containing 5×10^3 HEK-ISREluc cells/well in 30 μL (plated the day before). Following 24 hours of incubation, activation of the ISRE elements was measured by assaying luciferase activity using 40 μL/well Steady Lite Plus substrate (Perkin Elmer) and measured with ViewLux ultraHTS microplate imager (Perkin Elmer). The stimulating activity of each compound on the HEK-ISREluc cells was reported as LEC value, defined as the compound concentration applied to the PBMCs resulting in a luciferase activity at least two fold above the standard deviation of the assay. The LEC in turn indicates the degree of ISRE activation on transfer of a defined amount of PBMC culture medium. Recombinant interferon α-2a (Roferon-A) was used as a standard control compound.
For a given compound, the LEC value obtained from this assay were in the same range as the EC50 values obtained from the “suppression of HCV replication assay.” Thus, it is possible to compare the potential of compounds to induce IFN-I by PBMC, measured by either of the 2 assays.

[2] = biological target: T1, human TLR8 (wild type sequence) (Homo sapiens, UniProt Q9NR97); experiment: TLR8 cellular NFκB-luc reporter assay, wild type TLR8; type: cell-based; conditions: lowest effective concentration, wild type TLR8 (compounds 74 onward)
T1 construct: expressed in transfected cells; host or cells: HEK293
T1 sequence (Q9NR97 27-1041): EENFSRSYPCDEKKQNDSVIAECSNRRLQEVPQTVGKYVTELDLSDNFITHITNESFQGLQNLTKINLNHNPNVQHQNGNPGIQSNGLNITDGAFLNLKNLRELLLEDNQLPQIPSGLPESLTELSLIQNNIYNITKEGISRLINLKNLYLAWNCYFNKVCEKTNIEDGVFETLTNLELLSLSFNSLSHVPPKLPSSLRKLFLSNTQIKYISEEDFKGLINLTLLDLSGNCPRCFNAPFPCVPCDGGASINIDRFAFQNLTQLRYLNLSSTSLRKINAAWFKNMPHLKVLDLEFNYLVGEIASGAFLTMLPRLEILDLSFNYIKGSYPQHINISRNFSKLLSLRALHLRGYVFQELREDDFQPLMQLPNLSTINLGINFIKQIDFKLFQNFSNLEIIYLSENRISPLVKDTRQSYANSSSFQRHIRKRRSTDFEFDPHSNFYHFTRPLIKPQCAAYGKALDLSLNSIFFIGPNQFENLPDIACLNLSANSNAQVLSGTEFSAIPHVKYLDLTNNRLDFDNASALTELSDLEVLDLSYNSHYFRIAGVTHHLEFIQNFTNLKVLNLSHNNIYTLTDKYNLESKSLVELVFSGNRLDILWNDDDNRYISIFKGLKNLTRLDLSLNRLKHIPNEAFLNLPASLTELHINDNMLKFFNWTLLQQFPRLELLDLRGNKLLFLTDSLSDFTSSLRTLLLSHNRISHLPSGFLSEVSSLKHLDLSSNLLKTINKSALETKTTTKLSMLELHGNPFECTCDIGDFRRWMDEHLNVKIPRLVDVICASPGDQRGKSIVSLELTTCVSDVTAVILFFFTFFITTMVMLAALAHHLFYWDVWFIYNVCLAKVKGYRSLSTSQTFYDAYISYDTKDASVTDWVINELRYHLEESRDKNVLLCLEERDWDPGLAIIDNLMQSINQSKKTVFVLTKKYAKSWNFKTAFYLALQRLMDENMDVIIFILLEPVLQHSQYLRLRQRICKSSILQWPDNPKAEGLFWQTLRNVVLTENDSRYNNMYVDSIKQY
In short: (§1)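 NFκB-driven luciferase in HEK293 transiently expressing TLR7 or TLR8, wild type or mutant lacking part of the second LRR; 6 h compound exposure; lowest effective concentration reported.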

[3] = biological target: T2, human TLR7 (wild type sequence) (Homo sapiens, UniProt Q9NYK1); experiment: TLR7 cellular NFκB-luc reporter assay, wild type TLR7; type: cell-based; conditions: lowest effective concentration, wild type TLR7 (compounds 74 onward)
T2 construct: expressed in transfected cells; host or cells: HEK293
T2 sequence (Q9NYK1 27-1049): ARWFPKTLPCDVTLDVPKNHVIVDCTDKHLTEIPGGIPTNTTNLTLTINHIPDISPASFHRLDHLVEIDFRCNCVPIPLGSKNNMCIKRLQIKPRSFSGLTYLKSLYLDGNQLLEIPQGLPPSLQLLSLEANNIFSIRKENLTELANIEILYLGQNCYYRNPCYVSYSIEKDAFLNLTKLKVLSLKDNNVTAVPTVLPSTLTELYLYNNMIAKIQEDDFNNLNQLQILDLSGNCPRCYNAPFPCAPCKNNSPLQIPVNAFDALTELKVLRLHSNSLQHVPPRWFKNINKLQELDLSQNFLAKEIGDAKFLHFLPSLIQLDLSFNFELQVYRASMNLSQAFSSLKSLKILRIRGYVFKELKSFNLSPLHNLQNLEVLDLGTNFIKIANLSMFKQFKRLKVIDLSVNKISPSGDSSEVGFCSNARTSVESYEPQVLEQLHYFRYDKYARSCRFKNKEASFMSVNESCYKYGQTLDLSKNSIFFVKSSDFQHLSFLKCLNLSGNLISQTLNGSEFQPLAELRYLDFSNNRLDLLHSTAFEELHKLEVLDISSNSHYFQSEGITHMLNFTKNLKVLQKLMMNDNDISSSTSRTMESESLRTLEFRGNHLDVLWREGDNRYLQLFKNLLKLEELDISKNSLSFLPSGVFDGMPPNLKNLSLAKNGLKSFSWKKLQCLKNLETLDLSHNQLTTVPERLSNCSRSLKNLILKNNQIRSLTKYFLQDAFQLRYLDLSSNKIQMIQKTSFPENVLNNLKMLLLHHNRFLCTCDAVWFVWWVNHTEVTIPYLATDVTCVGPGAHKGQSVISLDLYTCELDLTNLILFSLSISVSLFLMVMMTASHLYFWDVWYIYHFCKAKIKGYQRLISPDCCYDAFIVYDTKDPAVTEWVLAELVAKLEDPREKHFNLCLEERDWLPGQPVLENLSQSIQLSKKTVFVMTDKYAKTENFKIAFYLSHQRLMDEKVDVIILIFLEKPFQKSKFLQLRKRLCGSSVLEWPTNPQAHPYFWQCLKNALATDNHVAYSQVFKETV
In short: as §1

Row | Compound | HEK-ISREluc LEC [1] | TLR 8 wt LEC [2] | TLR 7 wt LEC [3]
1 | CCCC[C@@H](CO)Nc1nc(N)ncc1OCc1cccc(C(N)=O)n1 [Compound 80] | 0.027 | 0.041 | 0.560
2 | CCCC[C@@H](CO)Nc1nc(N)ncc1OCc1cc(C)nn1C [Compound 79] | 0.235 | 0.329 | 1.620
